Assay results published in the NIST ThermoML archive (doi:10.1021/acs.jced.7b00654).
Numbers after ± are expanded uncertainties.

Assay: xn = mol fraction of the nth substance listed
Settings: 96.7 kPa, Liquid, Vibrating tube method

CCCCn1cc[n+](C)c1.[Cl-] [1-butyl-3-methylimidazolium chloride] + CN(C)C=O
mass density [kg/m3]
Settings	x1 = 0.151	x1 = 0.295	x1 = 0.385	x1 = 0.493	x1 = 0.626	x1 = 0.79	x1 = 0.887	x1 = 1
303.15 K	987.64 ± 2	1016.34 ± 2.1	1030.08 ± 2.1	1043.12 ± 2.1	1055.89 ± 2.2	1067.73 ± 2.2	1072.65 ± 2.3	1079.41 ± 2.3
308.15 K	983.55 ± 2	1012.63 ± 2.1	1026.56 ± 2.1	1039.78 ± 2.1	1052.75 ± 2.2	1064.72 ± 2.2	1069.74 ± 2.3	1076.58 ± 2.3
313.15 K	979.45 ± 2	1008.93 ± 2	1023.05 ± 2.1	1036.46 ± 2.1	1049.6 ± 2.2	1061.75 ± 2.2	1066.84 ± 2.3	1073.78 ± 2.3
318.15 K	975.35 ± 2	1005.24 ± 2	1019.54 ± 2.1	1033.15 ± 2.1	1046.6 ± 2.2	1058.83 ± 2.2	1063.95 ± 2.3	1070.99 ± 2.3
323.15 K	971.26 ± 2	1001.56 ± 2	1016.05 ± 2.1	1029.85 ± 2.1	1043.35 ± 2.2	1055.91 ± 2.2	1060.97 ± 2.3	1068.19 ± 2.3
328.15 K	967.16 ± 2	997.89 ± 2	1012.57 ± 2.1	1026.56 ± 2.1	1040.24 ± 2.2	1052.99 ± 2.2	1058.13 ± 2.3	1065.36 ± 2.3
333.15 K	963.07 ± 1.9	994.21 ± 2	1009.1 ± 2.1	1023.29 ± 2.1	1037.16 ± 2.1	1050.07 ± 2.2	1055.31 ± 2.2	1062.6 ± 2.3
338.15 K	958.97 ± 1.9	990.55 ± 2	1005.66 ± 2	1020.03 ± 2.1	1034.08 ± 2.1	1047.16 ± 2.2	1052.48 ± 2.2	1059.87 ± 2.3
343.15 K	954.87 ± 1.9	986.89 ± 2	1002.24 ± 2	1016.78 ± 2.1	1031.03 ± 2.1	1044.26 ± 2.2	1049.67 ± 2.2	1057.15 ± 2.3
348.15 K	950.78 ± 1.9	983.24 ± 2	998.82 ± 2	1013.55 ± 2.1	1027.98 ± 2.1	1041.39 ± 2.2	1046.88 ± 2.2	1054.42 ± 2.3
353.15 K	946.68 ± 1.9	979.59 ± 2	995.4 ± 2	1010.33 ± 2.1	1024.94 ± 2.1	1038.53 ± 2.2	1044.11 ± 2.2	1051.69 ± 2.3

CCCCn1cc[n+](C)c1.[Cl-] [1-butyl-3-methylimidazolium chloride] + C[S+](C)[O-]
mass density [kg/m3]
Settings	x1 = 0.161	x1 = 0.309	x1 = 0.401	x1 = 0.509	x1 = 0.641	x1 = 0.801	x1 = 0.894	x1 = 1
303.15 K	1090.42 ± 2.2	1093.72 ± 2.2	1092.13 ± 2.2	1089.44 ± 2.2	1086.22 ± 2.3	1083.66 ± 2.3	1081.72 ± 2.3	1079.41 ± 2.3
308.15 K	1086.85 ± 2.2	1089.98 ± 2.2	1088.58 ± 2.2	1086.09 ± 2.2	1082.96 ± 2.3	1080.69 ± 2.3	1078.88 ± 2.3	1076.58 ± 2.3
313.15 K	1083.14 ± 2.2	1086.25 ± 2.2	1085.04 ± 2.2	1082.74 ± 2.2	1079.73 ± 2.2	1077.69 ± 2.3	1075.99 ± 2.3	1073.78 ± 2.3
318.15 K	1079.58 ± 2.2	1082.54 ± 2.2	1081.51 ± 2.2	1079.35 ± 2.2	1076.52 ± 2.2	1074.71 ± 2.3	1073.12 ± 2.3	1070.99 ± 2.3
323.15 K	1075.76 ± 2.2	1078.83 ± 2.2	1078 ± 2.2	1076.05 ± 2.2	1073.33 ± 2.2	1071.78 ± 2.3	1070.22 ± 2.3	1068.19 ± 2.3
328.15 K	1072.19 ± 2.2	1075.14 ± 2.2	1074.5 ± 2.2	1072.7 ± 2.2	1070.18 ± 2.2	1068.87 ± 2.3	1067.39 ± 2.3	1065.36 ± 2.3
333.15 K	1068.87 ± 2.2	1071.45 ± 2.2	1071.01 ± 2.2	1069.47 ± 2.2	1067.09 ± 2.2	1065.95 ± 2.2	1064.59 ± 2.3	1062.6 ± 2.3
338.15 K	1065.13 ± 2.2	1067.76 ± 2.2	1067.54 ± 2.2	1066.13 ± 2.2	1064.06 ± 2.2	1063.04 ± 2.2	1061.79 ± 2.3	1059.87 ± 2.3
343.15 K	1061.44 ± 2.1	1064.1 ± 2.2	1064.07 ± 2.2	1062.88 ± 2.2	1061.11 ± 2.2	1060.14 ± 2.2	1058.99 ± 2.3	1057.15 ± 2.3
348.15 K	1057.69 ± 2.1	1060.44 ± 2.2	1060.63 ± 2.2	1059.65 ± 2.2	1058.17 ± 2.2	1057.25 ± 2.2	1056.19 ± 2.2	1054.42 ± 2.3
353.15 K	1053.72 ± 2.1	1056.79 ± 2.1	1057.19 ± 2.2	1056.42 ± 2.2	1055.25 ± 2.2	1054.38 ± 2.2	1053.41 ± 2.2	1051.69 ± 2.3
